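Cells were grown in 96-well plates and exposed to each compound for 48 hours at five concentrations; endpoints were interpolated linearly between bracketing concentrations, or set to the highest concentration if not reached. GI50 marks 50% less growth.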 Active and inactive are the calls of the source. Cut-off read from the data, not from the text of the source: active = GI50 up to about 1.1 µM and inactive = higher.
Experiments:
Experiment in all cases: NCI-60 cell line screen, 48 h
[1] = test system: OVCAR-4
[2] = test system: CCRF-CEM
[3] = test system: Malme-3M
[4] = test system: HT-29
[5] = test system: NCI-H23
[6] = test system: OVCAR-3
[7] = test system: K562
[8] = test system: PC-3
[9] = test system: RPMI-8226
[10] = test system: SK-OV-3
[11] = test system: U-251
[12] = test system: MDA-MB-435
[13] = test system: SF-539
[14] = test system: M14
[15] = test system: HCC 2998
[16] = test system: KM12
[17] = test system: NCI-H522
[18] = test system: SN12C
[19] = test system: SF-295
[20] = test system: SR

Row | SMILES | GI50 [1] | GI50 [2] | GI50 [3] | GI50 [4] | GI50 [5] | GI50 [6] | GI50 [7] | GI50 [8] | GI50 [9] | GI50 [10] | GI50 [11] | GI50 [12] | GI50 [13] | GI50 [14] | GI50 [15] | GI50 [16] | GI50 [17] | GI50 [18] | GI50 [19] | GI50 [20]
1 | CC1=C(SCCO)C(=O)c2ccccc2C1=O | 3.31 µM (inactive) | 1.82 µM (inactive) | 14.2 µM (inactive) | 19.3 µM (inactive) | 12.6 µM (inactive) | 2.82 µM (inactive) | 3.18 µM (inactive) | 11.4 µM (inactive) | 2.55 µM (inactive) | 16 µM (inactive) | 13.3 µM (inactive) | 11.6 µM (inactive) | 12.1 µM (inactive) | 14.3 µM (inactive) | 16.6 µM (inactive) | 13.6 µM (inactive) | 3.72 µM (inactive) | 15.6 µM (inactive) | 17.2 µM (inactive) | 3.21 µM (inactive)
2 | Clc1cc(N/N=C(\c2ccccc2)c2ccccn2)ncn1 | 10.9 µM (inactive) | < 0.01 µM (active) | < 0.01 µM (active) | < 0.01 µM (active) | 0.0904 µM (active) | 0.0223 µM (active) | 0.0644 µM (active) | 0.0728 µM (active) | 0.0438 µM (active) | 0.301 µM (active) | 0.427 µM (active) | 1.02 µM (active) | 0.197 µM (active) | 0.0361 µM (active) | 5.94 µM (inactive) | 1.22 µM (inactive) | < 0.01 µM (active) |  | 0.502 µM (active) | 0.0942 µM (active)
3 | N#Cc1c(Cl)cc(Cl)n2c1nc1ccccc12 | 10.4 µM (inactive) | 2.49 µM (inactive) | 2.76 µM (inactive) | 7.55 µM (inactive) | 18.2 µM (inactive) | 6 µM (inactive) | 2.61 µM (inactive) | 14.3 µM (inactive) | 4.27 µM (inactive) | 16.9 µM (inactive) | 20 µM (inactive) | 11.5 µM (inactive) | 4.47 µM (inactive) | 8.53 µM (inactive) | 2.51 µM (inactive) | 18.3 µM (inactive) | 2.29 µM (inactive) | 15.3 µM (inactive) | 17.3 µM (inactive) | 5.18 µM (inactive)

— ChEMBL document CHEMBL1201862, “PubChem BioAssay data set” (2004)
